Test results published in ChEMBL document CHEMBL4665688, “Discovery of AB680: A Potent and Selective Inhibitor of CD73” (J Med Chem, 2020).

What was measured:
[1] = Half life in human at 25 mg, iv administered as single infusion for 30 to 60 mins; assay type: ADME, organism-based; conditions: in vivo, time 30-60 min
[2] = molecular target: Cytochrome P450 2D6 (Homo sapiens, UniProt P10635); assay: Inhibition of CYP2D6 in human liver microsomes using dextromethorphan as substrate incubated for 5 to 20 mins in presence of NADPH by LC-MS/MS analysis; assay type: ADME; conditions: time 5-20 min
Cytochrome P450 2D6, sequence (P10635 whole entry): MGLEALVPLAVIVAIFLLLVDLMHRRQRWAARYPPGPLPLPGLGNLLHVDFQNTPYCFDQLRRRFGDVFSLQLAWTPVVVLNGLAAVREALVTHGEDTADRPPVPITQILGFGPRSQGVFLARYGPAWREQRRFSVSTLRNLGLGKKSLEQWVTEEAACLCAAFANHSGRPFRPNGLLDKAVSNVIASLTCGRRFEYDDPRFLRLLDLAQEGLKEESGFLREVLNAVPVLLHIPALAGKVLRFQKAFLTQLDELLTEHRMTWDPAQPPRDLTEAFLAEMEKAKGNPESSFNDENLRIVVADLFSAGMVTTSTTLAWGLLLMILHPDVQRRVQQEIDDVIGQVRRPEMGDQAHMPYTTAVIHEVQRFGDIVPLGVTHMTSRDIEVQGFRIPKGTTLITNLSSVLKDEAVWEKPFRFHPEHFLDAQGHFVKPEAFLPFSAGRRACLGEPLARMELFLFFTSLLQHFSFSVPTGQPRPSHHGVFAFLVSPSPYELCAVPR

[3] = molecular target: Cytochrome P450 2C9 (Homo sapiens, UniProt P11712); assay: Time dependent inhibition of CYP2C9 in human liver microsomes using diclofenac as substrate in presence of NADPH by LC-MS/MS analysis; assay type: ADME
Cytochrome P450 2C9, sequence (P11712 whole entry, the tested form may be a part): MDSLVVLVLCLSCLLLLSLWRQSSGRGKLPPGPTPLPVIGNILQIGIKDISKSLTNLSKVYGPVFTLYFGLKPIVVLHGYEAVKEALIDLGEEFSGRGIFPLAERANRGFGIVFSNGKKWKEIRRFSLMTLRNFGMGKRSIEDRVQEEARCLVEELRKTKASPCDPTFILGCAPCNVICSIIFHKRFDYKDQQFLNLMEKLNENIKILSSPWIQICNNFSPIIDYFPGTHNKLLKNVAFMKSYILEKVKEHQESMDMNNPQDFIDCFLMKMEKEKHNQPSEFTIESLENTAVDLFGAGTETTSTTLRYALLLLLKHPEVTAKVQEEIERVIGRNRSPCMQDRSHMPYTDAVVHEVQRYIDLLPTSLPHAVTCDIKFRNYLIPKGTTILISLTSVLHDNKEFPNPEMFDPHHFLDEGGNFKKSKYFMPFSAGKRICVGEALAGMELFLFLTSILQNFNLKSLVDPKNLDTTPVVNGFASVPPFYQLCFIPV

[4] = Volume of distribution at steady state in human at 25 mg, iv administered as single infusion for 30 to 60 mins; assay type: ADME, organism-based; conditions: in vivo, time 30-60 min, read-out: Vdss
[5] = molecular target: Cytochrome P450 3A4 (Homo sapiens, UniProt P08684); assay: Inhibition of CYP3A4 in human liver microsomes using midazolam as substrate incubated for 5 to 20 mins in presence of NADPH by LC-MS/MS analysis; assay type: ADME; conditions: time 5-20 min
Cytochrome P450 3A4, sequence (P08684 whole entry): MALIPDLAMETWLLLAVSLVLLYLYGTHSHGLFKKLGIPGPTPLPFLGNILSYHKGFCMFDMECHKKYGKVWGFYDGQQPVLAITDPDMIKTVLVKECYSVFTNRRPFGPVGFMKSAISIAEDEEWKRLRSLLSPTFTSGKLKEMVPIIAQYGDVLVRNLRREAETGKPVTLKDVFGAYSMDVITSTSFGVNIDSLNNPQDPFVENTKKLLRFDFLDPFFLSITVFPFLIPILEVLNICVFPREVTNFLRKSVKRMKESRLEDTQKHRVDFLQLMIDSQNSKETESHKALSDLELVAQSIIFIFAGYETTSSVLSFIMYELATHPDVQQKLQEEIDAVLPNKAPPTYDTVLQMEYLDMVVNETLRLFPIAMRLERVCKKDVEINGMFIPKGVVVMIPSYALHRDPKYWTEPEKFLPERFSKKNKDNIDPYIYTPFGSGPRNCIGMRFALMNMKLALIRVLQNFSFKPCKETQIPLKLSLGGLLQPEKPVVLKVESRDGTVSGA

[6] = molecular target: T1, Nuclear receptor subfamily 1 group I member 2 (Homo sapiens, UniProt O75469); assay: Activation of PXR (unknown origin) by reporter gene assay; assay type: ADME
T1 sequence (O75469 whole entry): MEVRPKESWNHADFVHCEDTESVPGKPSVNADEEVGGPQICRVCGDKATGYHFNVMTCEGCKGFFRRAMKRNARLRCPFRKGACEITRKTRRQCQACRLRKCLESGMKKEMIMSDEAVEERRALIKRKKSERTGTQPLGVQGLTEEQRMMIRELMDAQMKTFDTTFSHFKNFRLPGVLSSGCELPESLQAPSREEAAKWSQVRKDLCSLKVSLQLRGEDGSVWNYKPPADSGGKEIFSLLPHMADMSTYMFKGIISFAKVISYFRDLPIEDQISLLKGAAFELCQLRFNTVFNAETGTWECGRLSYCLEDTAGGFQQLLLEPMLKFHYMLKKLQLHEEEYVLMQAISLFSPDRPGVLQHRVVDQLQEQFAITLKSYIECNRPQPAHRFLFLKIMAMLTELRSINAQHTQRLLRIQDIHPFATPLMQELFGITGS

[7] = Chemical stability of the compound in acidic condition; assay type: physicochemical
[8] = Chemical stability of the compound in basic condition; assay type: physicochemical
[9] = Cmax in human at 25 mg, iv administered as single infusion for 30 to 60 mins; assay type: ADME, organism-based; parameters: route intravenous, dose 25 mg, time 30-60; conditions: in vivo
[10] = Volume of distribution at steady state in human at 16 mg, iv administered as single infusion for 30 to 60 mins; assay type: ADME, organism-based; conditions: in vivo, time 30-60 min, read-out: Vdss
[11] = Cmax in human at 16 mg, iv administered as single infusion for 30 to 60 mins; assay type: ADME, organism-based; parameters: route intravenous, dose 16 mg, time 30-60; conditions: in vivo
[12] = Clearance in dog at 0.5 mg/kg, iv; assay type: ADME, organism-based, Canis lupus familiaris; conditions: in vivo
[13] = Half life in human at 16 mg, iv administered as single infusion for 30 to 60 mins; assay type: ADME, organism-based; conditions: in vivo, time 30-60 min
[14] = molecular target: T2, 5'-nucleotidase (Mus musculus, UniProt Q61503); assay: Inhibition of CD73 in mouse CD8-positive T cells using AMP as substrate preincubated for 60 mins followed by substrate addition and measured after 2.5 hrs by PiColorLock gold reagent based colorimetric assay; assay type: cell-based, CD8-positive T cell
T2 sequence (Q61503 whole entry): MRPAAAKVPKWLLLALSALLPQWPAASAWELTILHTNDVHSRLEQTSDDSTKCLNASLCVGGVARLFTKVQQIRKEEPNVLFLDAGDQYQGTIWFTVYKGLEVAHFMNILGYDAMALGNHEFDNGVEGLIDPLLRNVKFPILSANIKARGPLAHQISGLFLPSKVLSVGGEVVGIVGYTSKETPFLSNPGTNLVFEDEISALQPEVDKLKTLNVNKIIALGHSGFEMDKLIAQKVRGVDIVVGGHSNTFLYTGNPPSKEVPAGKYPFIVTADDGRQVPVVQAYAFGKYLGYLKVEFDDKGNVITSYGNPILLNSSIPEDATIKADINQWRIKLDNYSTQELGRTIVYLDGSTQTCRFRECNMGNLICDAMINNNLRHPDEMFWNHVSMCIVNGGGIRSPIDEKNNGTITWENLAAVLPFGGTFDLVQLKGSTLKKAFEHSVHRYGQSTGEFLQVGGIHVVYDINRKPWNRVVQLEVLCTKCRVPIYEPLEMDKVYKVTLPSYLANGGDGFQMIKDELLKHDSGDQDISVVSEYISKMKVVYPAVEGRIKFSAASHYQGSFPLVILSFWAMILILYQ

[15] = Genotoxicity in Salmonella typhimurium by Ames test; assay type: toxicity; conditions: salmonella enterica subsp. enterica serovar typhimurium
[16] = molecular target: T3, Cytochrome P450 2B6 (Homo sapiens, UniProt P20813); assay: Induction of CYP2B6 (unknown origin) assessed as effect on CYP2B6 mRNA expression; assay type: ADME
T3 sequence (P20813 whole entry): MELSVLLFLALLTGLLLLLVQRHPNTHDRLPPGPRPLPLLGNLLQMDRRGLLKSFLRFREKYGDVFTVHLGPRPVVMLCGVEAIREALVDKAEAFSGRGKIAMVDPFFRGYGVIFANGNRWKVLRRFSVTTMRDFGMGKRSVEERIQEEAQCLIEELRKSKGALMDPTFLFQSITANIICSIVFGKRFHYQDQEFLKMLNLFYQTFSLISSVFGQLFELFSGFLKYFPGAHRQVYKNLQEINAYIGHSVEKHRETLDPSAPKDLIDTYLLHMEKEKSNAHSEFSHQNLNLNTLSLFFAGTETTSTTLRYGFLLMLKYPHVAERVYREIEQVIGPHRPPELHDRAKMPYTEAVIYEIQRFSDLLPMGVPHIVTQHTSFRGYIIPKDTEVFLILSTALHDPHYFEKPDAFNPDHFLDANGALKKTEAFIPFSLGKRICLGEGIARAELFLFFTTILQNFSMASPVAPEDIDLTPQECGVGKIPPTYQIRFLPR

[17] = molecular target: T4, 5'-nucleotidase (Homo sapiens, UniProt P21589); assay: Inhibition of CD73 in human CD8-positive T cells using AMP as substrate preincubated for 60 mins followed by substrate addition and measured after 2.5 hrs by PiColorLock gold reagent based colorimetric assay; assay type: cell-based, CD8-positive T cell
T4 sequence (P21589 whole entry): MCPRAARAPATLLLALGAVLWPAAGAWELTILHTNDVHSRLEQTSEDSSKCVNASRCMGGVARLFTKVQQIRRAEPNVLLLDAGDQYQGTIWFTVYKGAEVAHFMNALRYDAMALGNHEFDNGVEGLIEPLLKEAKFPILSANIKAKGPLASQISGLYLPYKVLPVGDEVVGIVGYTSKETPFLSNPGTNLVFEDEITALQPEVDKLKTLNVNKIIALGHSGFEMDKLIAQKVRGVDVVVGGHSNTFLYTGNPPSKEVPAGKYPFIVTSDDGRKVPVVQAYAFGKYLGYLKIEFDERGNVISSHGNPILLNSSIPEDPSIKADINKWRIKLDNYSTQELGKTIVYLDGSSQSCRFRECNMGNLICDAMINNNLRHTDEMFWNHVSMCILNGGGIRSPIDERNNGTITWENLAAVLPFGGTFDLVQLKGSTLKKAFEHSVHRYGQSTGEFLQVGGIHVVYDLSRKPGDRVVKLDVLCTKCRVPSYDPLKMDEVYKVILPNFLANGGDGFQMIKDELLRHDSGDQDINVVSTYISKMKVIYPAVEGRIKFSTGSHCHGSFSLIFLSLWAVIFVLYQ

[18] = molecular target: T4, 5'-nucleotidase; assay: Inhibition of CD73 in human PBMC using AMP as substrate preincubated for 60 mins followed by substrate addition and measured after 2.5 hrs by PiColorLock gold reagent based colorimetric assay; assay type: tissue-based
[19] = molecular target: T4, 5'-nucleotidase; assay: Inhibition of human CD73 expressed in CHO cells using AMP as substrate preincubated for 60 mins followed by substrate addition and measured after 60 mins by PiColorLock gold reagent based colorimetric assay; assay type: cell-based

half-life [1] | INH [2] | TDI [3] | Vd [4] | INH [5] | Activity [6] | Stabilty [7] | Stabilty [8] | Cmax [9] | Vd [10] | Cmax [11] | clearance [12] | half-life [13] | IC50 [14] | Activity [16] | IC50 [17] | IC50 [18] | IC50 [19] | Compound | Activity [15]
3.09 days | > 100 µM | Not Active | 6.98 L | > 100 µM | Not Active | Stable | Stable | 5170 ng/mL | 6.38 L | 3910 ng/mL | 0.833 mL/min/kg | 2.77 days | 0.66 nM | Not Active | – | – | – | C[C@H](Nc1cc(Cl)nc2c1cnn2[C@@H]1O[C@H](COP(=O)(O)CP(=O)(O)O)[C@@H](O)[C@H]1O)c1ccccc1F | Non-Toxic
– | – | – | – | – | – | – | – | – | – | – | 1.18 mL/min/kg | – | 0.16 nM | – | 2.7 pM | 0.0085 nM | 0.045 nM | C[C@H](Nc1nc(Cl)nc2c1cnn2[C@@H]1O[C@H](COP(=O)(O)CP(=O)(O)O)[C@@H](O)[C@H]1O)c1ccccc1 | –
– | – | – | – | – | – | Stable | Stable | – | – | – | 0.567 mL/min/kg | – | 0.83 nM | – | 10 pM | 0.021 nM | 0.115 nM | C[C@H](Nc1cc(Cl)nc2c1cnn2[C@@H]1O[C@H](COP(=O)(O)CP(=O)(O)O)[C@@H](O)[C@H]1O)c1ccc(F)cc1 | –
